In brackets after ≈: the same amount, converted by molar mass. Where two headings read alike, the source gives them in different places.
Columns and labels:
[1] = tested on: Escherichia Coli MC 4100 AcrAB UPA3r; test: MIC broth microdilution, E. coli MC 4100 AcrAB UPA3r (ΔAcrAB, UPA resistant); assay type: cell-based; conditions: E. coli AcrAB UPA3^r
[2] = tested on: Staphylococcus aureus ATCC 29213; test: MIC broth microdilution, S. aureus ATCC 29213 (wild type); assay type: cell-based; conditions: S. aureus ATCC 29213
[3] = tested on: Pseudomonas aeruginosa PAM 1154; test: MIC broth microdilution, P. aeruginosa PAM 1154 (OprM::Hg); assay type: cell-based; conditions: P. aeruginosa PAM 1154 OprM::Hg
[4] = tested on: Mycobacterium tuberculosis H37Rv; test: MIC agar dilution, M. tuberculosis H37Rv; assay type: cell-based
[5] = tested on: Pasteurella multocida pm002; test: MIC broth microdilution, P. multocida pm002 (wild type); assay type: cell-based
[6] = tested on: Staphylococcus aureus 8325-4; test: MIC broth microdilution, S. aureus 8325-4 (wild type); assay type: cell-based; conditions: S. aureus 8325-4
[7] = tested on: Pseudomonas aeruginosa PAM 1135; test: MIC broth microdilution, P. aeruginosa PAM 1135 (high level UPA resistance); assay type: cell-based; conditions: P. aeruginosa PAM 1135 UPA1^r
[8] = tested on: Pseudomonas aeruginosa PAM 1020; test: MIC broth microdilution, P. aeruginosa PAM 1020 (wild type); assay type: cell-based; conditions: P. aeruginosa PAM 1020
[9] = tested on: Pseudomonas aeruginosa PAM 1323; test: MIC broth microdilution, P. aeruginosa PAM 1323 (medium level UPA resistance); assay type: cell-based
[10] = tested on: Mycobacterium tuberculosis TN913; test: MIC agar dilution, M. tuberculosis TN913; assay type: cell-based
[11] = tested on: Escherichia Coli MC 4100 AcrAB; test: MIC broth microdilution, E. coli MC 4100 AcrAB (ΔAcrAB); assay type: cell-based; conditions: E. coli AcrAB
Escherichia Coli MC 4100 = test: MIC broth microdilution, E. coli MC 4100 (wild type); assay type: cell-based; conditions: E. coli MC 4100
[12] = tested on: Mycobacterium smegmatis ATCC 19420; test: MIC broth microdilution, M. smegmatis ATCC 19420; conditions: 72 hours at 35° C., CAMHB
[13] = tested on: Mycobacterium fortuitum ATCC 6841; test: MIC broth microdilution, M. fortuitum ATCC 6841; conditions: 72 hours at 35° C., CAMHB
[14] = agar dilution, Middlebrook 7H10 agar, four weeks at 35° C., 0, 1, 10 and 30 tested

Row | SMILES | MIC (μg/ml) Broth microdilution [1] | MIC (μg/ml) Broth microdilution [2] | MIC (μg/ml) Broth microdilution [3] | MIC H37RV (SENSITIVE) [4] | MIC (μg/ml) Broth microdilution [5] | MIC (μg/ml) Broth microdilution [6] | MIC (μg/ml) Broth microdilution [7] | MIC (μg/ml) Broth microdilution [8] | MIC (μg/ml) Broth microdilution [9] | MIC TN913 (SENSITIVE) [10] | MIC (μg/ml) Broth microdilution [11] | MIC (μg/ml) Broth microdilution (Escherichia Coli MC 4100) | MIC Broth microdilution M. smegmatis ATCC19420 [12] | MIC Broth microdilution M. fortuitum ATCC 6841 [13] | MIC H37RV (SENSITIVE) [4, 14] | MIC TN913 (SENSITIVE) [10, 14]
1 | CC(C)C[C@H](NC(=O)N[C@@H](Cc1c[nH]c2ccccc12)C(=O)O)C(=O)N[C@H](C(=O)NC[C@H]1C[C@@H](O)[C@H](n2ccc(=O)[nH]c2=O)O1)[C@H](C)N(C)C(=O)CN [Compound 109] | 8 µg/mL (≈ 10.8 µM) | >512 µg/mL | <1 µg/mL | >30 µg/mL | 128 µg/mL (≈ 173 µM) | >512 µg/mL | >512 µg/mL | 4 µg/mL (≈ 5.39 µM) | 128 µg/mL (≈ 173 µM) | 30 µg/mL (≈ 40.4 µM) | <1 µg/mL | 128 µg/mL (≈ 173 µM) | – | – | – | –
2 | CC(N)C(=O)N(C)C(C)C(NC(=O)C(Cc1ccccc1)NC(=O)NC(Cc1ccc2ccccc2c1)C(=O)O)C(=O)NCC1CC(O)C(n2ccc(=O)[nH]c2=O)O1 [Compound 133, 1-[5′-[(2S,3S)-N^3-L-Alanyl-N^2-[N-[[(1S)-1-carboxy-2-naphthalenethyl]carbamoyl]-L-phenylalanyl]-N^3-methyl-2,3-diaminobutyramido]-3′,5′-dideoxy-α-L-arabinofuranosyl]uracil] | 32 µg/mL (≈ 40 µM) | 256 µg/mL (≈ 320 µM) | 32 µg/mL (≈ 40 µM) | 30 µg/mL (≈ 37.5 µM) | 256 µg/mL (≈ 320 µM) | 128 µg/mL (≈ 160 µM) | >512 µg/mL | 64 µg/mL (≈ 79.9 µM) | >512 µg/mL | 30 µg/mL (≈ 37.5 µM) | <1 µg/mL | 256 µg/mL (≈ 320 µM) | 8 µg/mL (≈ 9.99 µM) | 32 µg/mL (≈ 40 µM) | – | –
3 | CC(N)C(=O)N(C)C(C)C(NC(=O)C(Cc1ccc(C(F)(F)F)cc1)NC(=O)NC(Cc1c[nH]c2ccccc12)C(=O)O)C(=O)NCC1CC(O)C(n2ccc(=O)[nH]c2=O)O1 [Compound 146, 1-[5′-[(2S,3S)-N^3-L-Alanyl-N^2-[N-[[(1S)-1-carboxy-2-indol-3-ylethyl]carbamoyl]-L-4-(trifluoromethyl)phenylalanyl]-N^3-methyl-2,3-diaminobutyramido]-3′,5′-dideoxy-α-L-arabinofuranosyl]uracil] | 64 µg/mL (≈ 74.6 µM) | 512 µg/mL (≈ 597 µM) | 32 µg/mL (≈ 37.3 µM) | 10 µg/mL (≈ 11.7 µM) | 64 µg/mL (≈ 74.6 µM) | 256 µg/mL (≈ 298 µM) | >512 µg/mL | 256 µg/mL (≈ 298 µM) | >512 µg/mL | 10 µg/mL (≈ 11.7 µM) | 2 µg/mL (≈ 2.33 µM) | 512 µg/mL (≈ 597 µM) | – | – | – | –
4 | CC(N)C(=O)N(C)C(C)C(NC(=O)C(Cc1ccc(-c2ccccc2)cc1)NC(=O)NC(Cc1c[nH]c2ccccc12)C(=O)O)C(=O)NCC1CC(O)C(n2ccc(=O)[nH]c2=O)O1 [Compound 155, 1-[5′-[(2S,3S)-N^3-L-Alanyl-N^2-[N-[[(1S)-1-carboxy-2-indol-3-ylethyl)carbamoyl]-L-4-biphenylalanyl]-N^3-methyl-2,3-diaminobutyramidol-3′,5′-dideoxy-α-L-arabinofuranosyl]uracil] | 512 µg/mL (≈ 591 µM) | >512 µg/mL | 64 µg/mL (≈ 73.9 µM) | 10 µg/mL (≈ 11.5 µM) | 32 µg/mL (≈ 37 µM) | 512 µg/mL (≈ 591 µM) | 512 µg/mL (≈ 591 µM) | 256 µg/mL (≈ 296 µM) | 256 µg/mL (≈ 296 µM) | 10 µg/mL (≈ 11.5 µM) | 8 µg/mL (≈ 9.24 µM) | 512 µg/mL (≈ 591 µM) | 4 µg/mL (≈ 4.62 µM) | 32 µg/mL (≈ 37 µM) | – | –
5 | CC(N)C(=O)N(C)C(C)C(NC(=O)C(Cc1ccc(F)cc1)NC(=O)NC(Cc1ccc(O)cc1)C(=O)O)C(=O)NCC1CC(O)C(n2ccc(=O)[nH]c2=O)O1 [Compound 157, 1-[5′-[(2S,3S)-N^3-L-Alanyl-N^2-[N-[[(1S)-1-carboxy-4-hydroxyphenethyl]carbamoyl]-L-4-fluorophenylalanyl]-N^3-methyl-2,3-diaminobutyramido]-3′,5′-dideoxy-α-L-arabinofuranosyl]uracil] | <1 µg/mL | >512 µg/mL | 16 µg/mL (≈ 20.4 µM) | 10 µg/mL (≈ 12.7 µM) | 256 µg/mL (≈ 326 µM) | 512 µg/mL (≈ 652 µM) | >512 µg/mL | 128 µg/mL (≈ 163 µM) | >512 µg/mL | 10 µg/mL (≈ 12.7 µM) | <1 µg/mL | 4 µg/mL (≈ 5.1 µM) | – | – | – | –
6 | CC(N)C(=O)N(C)C(C)C(NC(=O)C(Cc1ccc(F)cc1)NC(=O)NC(Cc1c[nH]c2ccccc12)C(=O)O)C(=O)NCC1CC(O)C(n2ccc(=O)[nH]c2=O)O1 [Compound 158, 1-[5′-[(2S,3S)-N^3-L-Alanyl-N^2-[N-[[(1S)-1-carboxy-2-indol-3-ylethyl]carbamoyl]-L-4-fluorophenylalanyl]-N^3-methyl-2,3-diaminobutyramidol-3′,5′-dideoxy-α-L-arabinofuranosyl]uracil] | 32 µg/mL (≈ 39.6 µM) | 512 µg/mL (≈ 634 µM) | 8 µg/mL (≈ 9.9 µM) | 10 µg/mL (≈ 12.4 µM) | 64 µg/mL (≈ 79.2 µM) | 512 µg/mL (≈ 634 µM) | 256 µg/mL (≈ 317 µM) | 64 µg/mL (≈ 79.2 µM) | 256 µg/mL (≈ 317 µM) | 10 µg/mL (≈ 12.4 µM) | <1 µg/mL | 512 µg/mL (≈ 634 µM) | 1 µg/mL (≈ 1.24 µM) | 32 µg/mL (≈ 39.6 µM) | – | –
7 | CC(C)CC(N)C(=O)N(C)C(C)C(NC(=O)C(Cc1ccccc1)NC(=O)NC(Cc1c[nH]c2ccccc12)C(=O)O)C(=O)NCC1CC(O)C(n2ccc(=O)[nH]c2=O)O1 [Compound 159, 1-[5′-[(2S,3S)-N^2-[N-[[(1S)-1-Carboxy-2-indol-3-ylethyl]carbamoyl]-L-phenylalanyl]l-N^3-L-leucyl-N^3-methyl-2,3-diaminobutyramido]-3′,5′-dideoxy-α-L-arabinofuranosyl]uracil] | 64 µg/mL (≈ 76.9 µM) | >512 µg/mL | 8 µg/mL (≈ 9.62 µM) | 30 µg/mL (≈ 36.1 µM) | 128 µg/mL (≈ 154 µM) | >512 µg/mL | 256 µg/mL (≈ 308 µM) | 128 µg/mL (≈ 154 µM) | 256 µg/mL (≈ 308 µM) | 30 µg/mL (≈ 36.1 µM) | 2 µg/mL (≈ 2.4 µM) | >512 µg/mL | 8 µg/mL (≈ 9.62 µM) | 64 µg/mL (≈ 76.9 µM) | – | –
8 | C[C@H](N)C(=O)N(C)[C@@H](C)[C@H](NC(=O)[C@H](Cc1ccccc1)NC(=O)N[C@@H](Cc1ccc(O)cc1)C(=O)O)C(=O)NC[C@H]1C[C@@H](O)[C@H](n2ccc(=O)[nH]c2=O)O1 [Compound 160] | 4 µg/mL (≈ 5.22 µM) | 512 µg/mL (≈ 668 µM) | 8 µg/mL (≈ 10.4 µM) | – | 256 µg/mL (≈ 334 µM) | 512 µg/mL (≈ 668 µM) | >512 µg/mL | 16 µg/mL (≈ 20.9 µM) | >512 µg/mL | – | <1 µg/mL | 32 µg/mL (≈ 41.7 µM) | 16 µg/mL (≈ 20.9 µM) | 128 µg/mL (≈ 167 µM) | – | –
9 | CC(N)C(=O)N(C)C(C)C(NC(=O)C(Cc1ccccc1)NC(=O)NC(Cc1c[nH]c2ccccc12)C(=O)O)C(=O)NCC1CC(O)C(n2ccc(=O)[nH]c2=O)O1 [Compound 164, 1-[5′-[(2S,3S)-N^3-L-Alanyl-N^2-[N-[[(1S)-1-carboxy-2-indol-3-ylethyl]carbamoyl]-L-phenylalanyl]-N^3-methyl-2,3-diaminobutyramido]-3′,5′-dideoxy-α-L-arabinofuranosyl]uracil] | 64 µg/mL (≈ 81 µM) | 256 µg/mL (≈ 324 µM) | 4 µg/mL (≈ 5.06 µM) | 10 µg/mL (≈ 12.7 µM) | 128 µg/mL (≈ 162 µM) | 128 µg/mL (≈ 162 µM) | 256 µg/mL (≈ 324 µM) | 16 µg/mL (≈ 20.3 µM) | 256 µg/mL (≈ 324 µM) | 10 µg/mL (≈ 12.7 µM) | <1 µg/mL | 512 µg/mL (≈ 648 µM) | – | – | – | –
10 | C[C@H](NC(=O)N[C@@H](Cc1c[nH]c2ccccc12)C(=O)O)C(=O)N[C@H](C(=O)N/C=C1/C[C@@H](O)[C@H](n2ccc(=O)[nH]c2=O)O1)[C@H](C)N(C)C(=O)[C@@H](N)Cc1cccc(O)c1 [Pacidamycin 4, reference compound] | – | – | – | – | – | – | – | – | – | – | – | – | – | – | >30 µg/mL | >30 µg/mL

Reference: patent US6482921B1, “Uridyl peptide antibiotic (UPA) derivatives, their synthesis and use” (Essential Therapeutics, Inc., priority 1999, dated 2002)
